Measurements taken from patent publication US8841264B2, “Compositions” (DSM IP Assets B.V., priority 2006, dated 2014).
Like-named read-outs stand apart in the source and are kept apart here.

Columns and labels:
[1] = tested on: PGE2 production in RAW267.7 macrophages; assay: Inhibition of PGE2 production in LPS-activated macrophages (EIA); assay type: cell-based, murine
Description: (§1) The anti-inflammatory effects combinations of OH-tyrosol or oleuropein and representatives of other groups of natural substances (isoflavones, catechins, phtalides, hydroxylated biphenyls) were evaluated in activated macrophages by determining the inhibition of the synthesis of nitric oxide and/or pro-inflammatory prostaglandins (PG). PGE2 plays a critical role in the inflammation process, while nitric oxide (NO) is a hallmark of inflammation in various chronic inflammatory diseases including various forms of arthritis, gastro-intestinal diseases and metabolic syndrome.
(§2) The anti inflammatory effect of compounds was tested in cellular assays using a murine macrophage indicator cell line, RAW267.7, which was purchased from American Type Culture Collection, (ATCC) and cultured in DMEM according to the protocol provided by ATCC. Cells (˜50,000/well) were seeded into flat-bottomed microtiter plates and cultured for one day. Cells were then starved in complete medium containing 0.25% FCS (D-025). After overnight culture, medium was removed and replaced by 100 μL of D-025 containing the test compounds at twice the final concentration. Subsequently, 100 μL of D-025 containing 2 μg/ml LPS was added (i.e. final LPS concentration of 1 μg/ml) and the cells cultured for 24 hours. Substances were usually tested in a concentration range from 0.2 to 50 μM (or μg/ml in the case of extracts) in two-fold dilution steps. Concentrations of nitrite which was generated from nitric oxide released by cells were determined by the Griess reaction using sodium nitrite as standard (see e.g Imai et al. Biochem Biophys Res Comm, 197, 105 [1993]). Briefly, 50 μl of supernatant was mixed with Griess reagent 1 (25 μL) and Griess reagent 2 (25 μL), centrifuged and the optical density at 540 nm determined. PGE2 secreted into the cell culture medium was determined by EIA obtained from Cayman Chemicals ([…]) and used according to the manufacturer's instructions. IC50 values were calculated using a […] least-square fitting equation [y=A+((B−A)/(1+((C−x)^D))] for best-fit curves (Excel fit software program).
(§3) In a methodological approach that was similar to that described for Example 1, the synergistic effect of lycopene, resveratrol and OH-tyrosol was tested on the inflammatory response. Dose-dependent effects of each substance on the production of nitric oxide or PGE2 in macrophages were determined.

[2] = tested on: nitric oxide production in RAW267.7 macrophages; assay: Inhibition of nitric oxide production in LPS-activated macrophages (Griess reaction); assay type: cell-based, murine; conditions: for inhibition at 12.5 µM / % inhibition of NO production: 12.5 μmol/L; for inhibition at 3.125 µM: 3.125 μmol/L; for inhibition at 3.13 µM: 3.13 μmol/L
Description: as §1, §2, §3

[3] = Mus musculus, Macrophage, single substance, RAW267.7, LPS 1 μg/ml, 24 hours, read-out: IC50 PGE2
[4] = Mus musculus, Macrophage, single substance, RAW267.7, LPS 1 μg/ml, 24 hours, read-out: IC50 Nitric Oxide
[5] = Mus musculus, Macrophage, read-out: % inhibition of NO production
[6] = Mus musculus, Macrophage, Example 2, read-out: IC50 of pure compound (PGE2 production)
[7] = Mus musculus, Macrophage, Example 2, read-out: IC50 of pure compound (NO production)
[8] = Mus musculus, Macrophage, Example 2, read-out: % inhibition of NO production

Row | IC50 [1, 3] [µM] | IC50 [2, 4] [µM] | IC50 [1, 6] [µM] | IC50 [2, 7] [µM] | Compound | inhibition at 12.5 µM [2, 5] [%] | further results
1 | 4.6 ± 0.6 | 37 ± 2 |  |  | O=c1c(-c2ccc(O)cc2)coc2cc(O)cc(O)c12 [Genistein, 4′,5,7-trihydroxyisoflavone] |  | inhibition at 25 µM ([2]; Mus musculus, Macrophage, 25 μmol/L, read-out: % inhibition of NO production): 40%
2 | 1 ± 0.2 | 8 ± 1 |  |  | C=CCc1ccc(O)c(-c2ccc(O)c(CC=C)c2)c1 [Honokiol, 3′,5-Diallyl-2,4′-biphenyldiol] | 66 | 
3 | 10 ± 2 | 15 ± 1 |  |  | CCC/C=C1\OC(=O)C2=C1CCC=C2 [Ligustilide, ligustilide] | 38 | inhibition at 3.125 µM [2, 5]: 28%
4 |  |  | > 8 | > 8 | CC(C)=CCC/C(C)=C/C=C/C(C)=C/C=C/C(C)=C/C=C/C=C(C)/C=C/C=C(C)/C=C/C=C(\C)CCC=C(C)C [Lycopene (Ly), ψ,ψ carotene] |  | inhibition at 0.25 µM ([1]; Mus musculus, Macrophage, Example 2, 0.25 μmol/L): -5%; inhibition at 0.5 µM ([2]; Mus musculus, Macrophage, Example 2, 0.5 μmol/L, read-out: % inhibition of NO production): 4%; anti-inflammatory effect (production of nitric oxide or PGE2 in macrophages) ([2]; at <8 μmol/L): no anti-inflammatory effect
5 | 24 ± 3 | 28 ± 2 | 22.7 | 24.1 | OCCc1ccc(O)c(O)c1 [OH-Tyrosol, 2-(3,4-dihydroxyphenyl)-ethanol] |  | % inhibition of NO production [2]: 33%; inhibition at 6.25 µM ([2]; Mus musculus, Macrophage, 6.25 μmol/L, read-out: % inhibition of NO production): 7%; inhibition at 3.13 µM [2, 8]: -4%
6 | 60 ± 10 | 52 ± 5 |  |  | C/C=C1/[C@H](O[C@@H]2O[C@H](CO)[C@@H](O)[C@H](O)[C@H]2O)OC=C(C(=O)OC)[C@H]1CC(=O)OCCc1ccc(O)c(O)c1 [Oleuropein, oleuropein] | 8 | inhibition at 3.125 µM [2, 5]: 2%
7 | 24 ± 2 | 31 ± 2 | 23.4 | 19.3 | Oc1ccc(/C=C/c2cc(O)cc(O)c2)cc1 [Resveratrol, (trans)-resveratrol] |  | inhibition at 3.13 µM [2, 8]: -2%
8 |  |  |  |  | (−)-epigallocatechin gallate [EGCG] |  | IC50 ([1]; single substance, RAW267.7, LPS 1 μg/ml, 24 hours, read-out: IC50 PGE2): 35 ± 3 µM; % inhibition of NO production [2]: 12%; IC50 ([2]; single substance, RAW267.7, LPS 1 μg/ml, 24 hours, read-out: IC50 Nitric Oxide): 33 ± 2 µM
